# Reference: US9868937B2, “Cell and gene based methods to improve cardiac function” (University of Washington, priority 2011, dated 2018)
# “Also recorded” adds a separate entry of the source.
# System: mouse aortic smooth muscle
# Assay: Mouse aortic smooth muscle contraction in skinned muscle strips with dATP vs. ATP
# Assay type: biochemical
# Excerpt: dATP has no affect on mouse aortic smooth muscle force development. To begin studying potential systemic effects of elevated dATP, we collaborated with Dr. Frank Brozovich (Mayo Clinic) to determine if dATP affects mouse aortic smooth muscle contraction.
smiles,measurement,setting,value
"Nc1ncnc2c1ncn2[C@H]1C[C@H](O)[C@@H](COP(=O)(O)OP(=O)(O)OP(=O)(O)O)O1 [dATP, 2 deoxy-ATP]",level of myosin light chain phosphorylation,control measurements (data not shown),did not change
same,aortic smooth muscle contraction,dATP vs. ATP as the contractile substrate,did not differ; also recorded: did not alter contraction
